Laboratory results published in patent US20250074911A1, “MACROCYCLIC BTK INHIBITORS” (Crossfire Oncology Holding B.V., priority 2021, published 2025).

How the values were obtained:
[1] = target: BTK T316A (Homo sapiens (Human), UniProt Q06187, T316A); assay: Binding kinetics measurements (Surface Plasmon Resonance) on BTK T316A; details: for Kd: binding affinity by Surface Plasmon Resonance (SPR); for Tau (h) BTK T316A (Act): target residence time, SPR
How it was run: (§1)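 Constants (ka, kd, KD) are geometric means of duplicates from single cycle SPR at 22° C, with compound at 3.16-316 nM in five steps. Residence time for induced-fit binders derived per a two-state model.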

[2] = target: BTK T474I (Homo sapiens (Human), UniProt Q06187, T474I); assay: Binding kinetics measurements (Surface Plasmon Resonance) on BTK T474I; details: for Kd: binding affinity by Surface Plasmon Resonance (SPR); for Tau (h) BTK T474I (Act): target residence time, SPR
How it was run: as §1

[3] = test system: wt-BTK, BTK C481S, BTK T474I and BTK C481S/T474I expressing 293 cells; assay: Cell based washout, pBTK (Tyr223) Western blot; design: species or system human; details: 1000 nM compound 2 hours, washed twice, harvested 0-24 hours; also cell lines expressing mutant BTK
Method: In vitro cellular (mutant) BTK inhibition, and inhibitor wash-out Generation of human wt-BTK, BTK C481S, BTK T474I, and BTK C481S/T474I expressing GripTite 293 MSR cells.
GripTite 293 MSR cells (Thermo Fisher, cat. no. R79507), here after referred to as 293 cells, were cultured in DMEM/F-12, GIutaMAX™ supplement medium (Thermo Fisher cat. no. 10565018) supplemented with 1% Penicilline/Streptomycine (Thermo Fisher cat. no. 15140122) 10% fetal bovine serum (Biowest, cat. no. Si181 0-500), 1× MEM Non-Essential Amino Acids (Thermo Fisher cat. no. 11140050) and 50 μg/ml Geneticin (Thermo Fisher cat. no. 10131035). Cells were transfected, with pEF6/V5-HisB (Thermo Fisher cat. no. V96120) expression vectors containing either full-length wildtype-BTK (canonical sequence NM_000061), BTK C481 S, BTK T474I or BTK C481 S/T474I (BaseClear) using Lipofectamine™ 3000 (Invitrogen). Because the stop codon at the end of the coding sequence of BTK has been conserved, the His-tag present in the expression vector is not being used. Immediately after transfection, cells were cultured in medium without Geneticin, and after 24 hours 50 μg/ml geneticin was added. 48 hours after transfection, medium was removed and replaced by medium containing both geneticin (50 μg/ml) and blasticidin (10 μg/ml) S HCl (Thermo Fisher, cat. no. A1113903). The resulting transfectants were cultured under blasticidin selection pressure for 18-35 passages to obtain stable wild-type BTK (wt-BTK), BTK C481S, BTK T474I, and BTK C481 S/T474I expressing cell pools. Stability of the (mutant) BTK expression in the 293 cell pools was confirmed by poly-acrylamide gel electrophoresis followed by Western blotting (FIG. 1A). […] For both experiments 10 μg of protein was separated on 4-12% Bis-Tris polyacrylamide gels.
Wild-type BTK, BTK C481S, BTK T474I or BTK C481 S/T474I expressing 293 cells were lysed in lysis buffer supplemented with protease inhibitors (Merck, cat. no. P8340) and phosphatase inhibitors (Thermo Fisher, cat. no. 78426). The protein concentration was determined with a Pierce BCA protein assay kit (Thermo Fisher, cat. no. 23227). Lysates were diluted to a concentration of 1 μg/μl in NuPage® LDS Sample Buffer (Thermo Fisher, cat. no. NP0008) with 167 mM DTT (Acros Organics, cat. no. 10686841) and denatured for 5 minutes at 95° C. The samples (10 μg protein) were, together with a pre stained protein ladder (Thermo Fisher, cat. no. 26616), separated on 4-12% Bis-Tris polyacrylamide gels (Thermo Fisher, cat. no. NP0324BOX). Separated protein was subsequently transferred, in methanol free transfer buffer (Thermo Fisher, cat. no. 35045), to a nitrocellulose membrane (Thermo Fisher, cat. no. 88018). Blots were first immunologically stained with phospho-BTK (Tyr223) rabbit mAb (Cell Signaling, cat. no. 5082S), and beta-actin rabbit mAb (Cell Signaling, cat. no. 4967S), followed by peroxidase conjugated goat anti-rabbit IgG (Cell Signaling, cat. no. 7074S). Afterwards, antibodies were removed using Western-blot stripping buffer (Thermo Fisher cat. no. 46428) and staining was repeated with a (total-)BTK mouse mAb (Abnova, cat. no. MAB0798), followed by peroxidase conjugated horse anti-mouse IgG (Cell Signaling, cat. no. 7076S). For all blots the colour development was performed with ECL horseradish peroxidase substrate (BioRad, cat. no. 170-5060).
Wild-type BTK, BTK C481S, BTK T474I, and BTK C481 S/T474I expressing 293 cells were growing exponentially when seeded in culture medium, without blasticidin, at a density of 2,000,000 cells/4 ml/well, in 25 cm^2 cell culture flasks (Greiner Bio-one, cat. no. 690175). Flasks were placed in a 37° C. C02-incubator for 16-24 hours after which 1 ml culture medium containing 5000 nM of the compound of Example 46 or Example 201, or Example 184, or Example 204, or Example 45 or (+/−) Loxo-305, or 0.05% DMSO (no compound) was added. 2 hours after addition of the inhibitors (0h) cells are either collected or washed twice with 5 ml culture medium. […]

[4] = target: BTK T474S (Homo sapiens (Human), UniProt Q06187, T474S); assay: Binding kinetics measurements (Surface Plasmon Resonance) on BTK T474S; details: for residence time: SPR binding kinetics, BTK T474S, read-out: Tau (h) BTK T474S (Act), target residence time (converted); for Kd: binding affinity by Surface Plasmon Resonance (SPR)
How it was run: as §1

BTK T316A, sequence (Q06187 whole entry T316A): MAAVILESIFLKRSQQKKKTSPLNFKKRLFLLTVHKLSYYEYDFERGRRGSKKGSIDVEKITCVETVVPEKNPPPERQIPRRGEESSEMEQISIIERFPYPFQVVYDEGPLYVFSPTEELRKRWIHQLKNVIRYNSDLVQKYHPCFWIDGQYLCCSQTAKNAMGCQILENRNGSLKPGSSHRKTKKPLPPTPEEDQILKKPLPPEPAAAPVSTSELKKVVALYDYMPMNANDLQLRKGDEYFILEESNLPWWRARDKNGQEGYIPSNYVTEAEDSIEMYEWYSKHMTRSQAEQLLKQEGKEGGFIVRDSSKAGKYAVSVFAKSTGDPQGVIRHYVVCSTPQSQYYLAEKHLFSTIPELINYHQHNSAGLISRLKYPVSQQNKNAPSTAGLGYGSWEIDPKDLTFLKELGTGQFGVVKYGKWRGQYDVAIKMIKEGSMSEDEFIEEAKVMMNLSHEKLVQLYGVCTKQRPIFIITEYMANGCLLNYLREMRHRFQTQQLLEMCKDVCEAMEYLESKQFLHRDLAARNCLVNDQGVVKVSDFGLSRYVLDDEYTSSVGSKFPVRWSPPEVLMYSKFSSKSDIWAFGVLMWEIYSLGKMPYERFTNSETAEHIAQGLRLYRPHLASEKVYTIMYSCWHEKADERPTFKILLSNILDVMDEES
BTK T474S, sequence (Q06187 whole entry T474S): as the sequence (Q06187 whole entry T316A) above, with A316T, T474S counted along it
BTK T474I, sequence (Q06187 whole entry T474I): as the sequence (Q06187 whole entry T316A) above, with A316T, T474I counted along it

Row | SMILES | Kd [1] | Tau (h) BTK T316A (Act) [1] | Kd [2] | Tau (h) BTK T474I (Act) [2] | time for which level of phosphorylated BTK (pBTK (Tyr223)) is prohibited or reduced after wash-out [3] | residence time [4] | Kd [4]
1 | Nc1ncc2c3c1c(-c1ccc(C(=O)Nc4cc(C(F)(F)F)ccn4)cc1)nn3[C@@H]1CCC[C@H](C1)NC(=O)CCOC/C=C/2 [Example 25] | < 5 nM | 3.55 h | < 2 nM | 3.02 h | at least 6 hours | 2.64 h | < 3 nM
2 | C[C@@H]1CC(=O)N[C@@H]2CCC[C@H](C2)n2nc(-c3ccc(C(=O)Nc4cc(C(F)(F)F)ccn4)cc3)c3c(N)ncc(c32)/C=C/CCN1 [Example 45] | < 5 nM | 6.06 h | < 2 nM | 2.64 h | at least 6 hours | 2.94 h | < 3 nM
3 | N#Cc1ccnc(NC(=O)c2ccc(-c3nc4n5c(cnc(N)c35)/C=C/CCCCCC(=O)N[C@@H]3CCC[C@@H]4C3)cc2)c1 [Example 184] | – | – | – | 0.85 h | at least 6 hours | – | –
4 | N#Cc1ccnc(NC(=O)c2ccc(-c3nc4n5c(cnc(N)c35)/C=C/CCOCCC(=O)N[C@@H]3CC[C@@H]4C3)cc2)c1 [Example 201] | – | – | – | 1.15 h | at least 6 hours | – | –
5 | N#Cc1ccnc(NC(=O)c2ccc(-c3nc4n5c(cnc(N)c35)/C=C/CCCCCC(=O)N[C@@H]3CC[C@@H]4C3)cc2)c1 [Example 204] | – | – | – | 0.90 h | at least 6 hours | – | –
